The test concerns human iPS cells (Ff-I01 strain). The test can be described thus: Neural tissue / neuroepithelium formation in cell aggregates, bright field observation. It is filed as cell-based. The conditions noted are these: StemFit AK03N; SAG 300 nM for 24, 48, 72 or 96 hr in step 1, SAG 500 nM in step 2, BMP4 1.5 nM; day 19. On the procedure:
At the time of the start of suspension culturing (day 0 after the start of suspension culturing, […]), Y27632 ([…]) were added to the above serum-free medium (FIG. 22). By day 2 after the start of suspension culturing, a cell aggregate was formed (step 2 completed, step 3 start) under any conditions. On day 3 or later from the start of suspension culturing, BMP4 was added under 3 conditions including the following conditions 1-3. • Condition 1: (+BMP4 addition once) On day 3 of suspension culturing, a medium (50 μl) free of Y27632 and SAG, and containing human recombinant BMP4 (manufactured by R&D) was added such that the final concentration of exogenous human recombinant BMP4 was 1.5 nM (55 ng/ml). On day 6 or later from the start of suspension culturing, a half amount of the medium was changed to a serum-free medium free of Y27632, SAG and human recombinant BMP4. • Condition 2: (+BMP4 addition twice) On day 3 of suspension culturing, a medium (50 μl) free of Y27632, SAG and containing human recombinant BMP4 (manufactured by R&D) was added such that the final concentration of exogenous human recombinant BMP4 was 1.5 nM (55 ng/ml). On day 6 from the start of suspension culturing, 50 μl of the medium was discarded, and 50 μl of a medium free of Y27632 and SAG and containing human recombinant BMP4 (manufactured by R&D) was added to maintain the final concentration of exogenous human recombinant BMP4 at 1.5 nM (55 ng/ml). On day 9 or later from the start of suspension culturing, a half amount of the medium was changed with a serum-free medium free of Y27632, SAG, and human recombinant BMP4. • Condition 3: (+BMP4 addition three times) On day 3 of suspension culturing, a medium (50 μl) free of Y27632, SAG and containing human recombinant BMP4 (manufactured by R&D) was added such that the final concentration of exogenous human recombinant BMP4 was 1.5 nM (55 ng/ml). On days 6 and 9 from the start of suspension culturing, 50 μl of the medium was discarded, and 50 μl of a medium free of Y27632 and SAG and containing human recombinant BMP4 (manufactured by R&D) was added to maintain the final concentration of exogenous human recombinant BMP4 at 1.5 nM (55 ng/ml). On day 12 or later from the start of suspension culturing, a half amount of the medium was changed with a serum-free medium free of Y27632, SAG and human recombinant BMP4. […]
On day 3 after the start of suspension culturing, a medium (50 μl) free of Y27632 and SAG, and containing human recombinant BMP4 (manufactured by R&D) was added such that the final concentration of exogenous human recombinant BMP4 was 1.5 nM (55 ng/ml) or 5 nM (183 ng/ml). […]

In the case of `CNC1CCC(N(Cc2cccc(-c3ccncc3)c2)C(=O)c2sc3ccccc3c2Cl)CC1` (stereo not shown) [SAG], the “cell aggregate growth and neuroepithelium formation” value was “neuroepithelium can be formed efficiently”.
